What follows are compounds tested on ERK phosphorylation (assay: Analysis of ERK phosphorylation (Alphascreen SureFire Phospho-ERK 1/2)). Conditions: cells treated for 1 h; human melanoma cells, human and mouse colon cancer cells; read-out: Minimum concentration (nM) required for ≧80% inhibition of pERK.
Assay type: cell-based, human and mouse
Protocol: This assay was carried out with human melanoma cells, human and mouse colon cancer cells. Cells were treated for 1 h with various concentrations of test compounds. ERK phosphorylation analysis was performed using the Alphascreen SureFire Phospho-ERK 1/2 Kit (Perkin Elmer), by following the manufacturer's instructions. % inhibition of ERK phosphorylation was determined as: 100−{(RFU test−RFU lysis buffer control)/(RFU vehicle treated control−RFU lysis buffer control)}×100. Percentage inhibition at concentrations of 0.01 nM, 0.03 nM, 0.1-0.9 nM, 1 nM to 3 nM, 4-100 nM, and >100 nM, for the stated examples is setworth here. The percentage inhibition at the above depicted concentrations for the compounds stated are given in the following groups.

Row | SMILES | IC80 [nM]
1 | Cc1c(=O)n(C)c(Nc2ccc(I)cc2F)c2c(=O)n(C)c(=O)n(-c3cccc(C(=O)NC4(CO)CC4)c3)c12 [Compound 53, 3-(5-((2-fluoro-4-iodophenyl)amino)-3,6,8-trimethyl-2,4,7-trioxo-3,4,6,7-tetrahydropyrido[4,3-d]pyrimidin-1(2H)-yl)-N-(1-(hydroxymethyl)cyclopropyl)benzamide] | 4 to 100
2 | Cc1c(=O)n(C)c(Nc2ccc(I)cc2F)c2c(=O)n(C3CC3)c(=O)n(-c3cccc(CCC(N)=O)c3)c12 [Compound 34, 3-(3-(3-cyclopropyl-5-((2-fluoro-4-iodophenyl)amino)-6,8-dimethyl-2,4,7-trioxo-3,4,6,7-tetrahydropyrido[4,3-d]pyrimidin-1(2H)-yl)phenyl)propanamide] | 1 to 3
3 | Cc1c(=O)n(C)c(Nc2ccc(I)cc2F)c2c(=O)[nH]c(=O)n(-c3cccc(C(=O)N4CCC(O)CC4)c3)c12 [Compound 18, 5((2-fluoro-4-iodophenyl)amino)-1-(3-(4-hydroxypiperidine-1-carbonyl)phenyl)-6,8-dimethylpyrido[4,3-d]pyrimidine-2,4,7(1H,3H,6H)-trione] | 4 to 100
4 | CCn1c(=O)c2c(Nc3ccc(I)cc3F)n(C)c(=O)c(C)c2n(-c2cccc(CC(=O)NC3CC3)c2)c1=O [Compound 59, N-cyclopropyl-2-(3-(3-ethyl-5-((2-fluoro-4-iodophenyl)amino)-6,8-dimethyl-2,4,7-trioxo-3,4,6,7-tetrahydropyrido[4,3-d]pyrimidin-1(2H)-yl)phenyl)acetamide] | 1 to 3
5 | Cc1c(=O)n(C)c(Nc2ccc(I)cc2F)c2c(=O)n(C3CC3)c(=O)n(-c3cccc(CC(N)=O)c3)c12 [Compound 26, 2-(3-(3-cyclopropyl-5-((2-fluoro-4-iodophenyl)amino)-6,8-dimethyl-2,4,7-trioxo-3,4,6,7-tetrahydropyrido[4,3-d]pyrimidin-1(2H)-yl)phenyl)acetamide] | 4 to 100
6 | CNC(=O)COc1cccc(-n2c(=O)n(C)c(=O)c3c(Nc4ccc(I)cc4F)n(C)c(=O)c(C)c32)c1 [Compound 60, 2-(3-(5-((2-fluoro-4-iodophenyl)amino)-3,6,8-trimethyl-2,4,7-trioxo-3,4,6,7-tetrahydropyrido[4,3-d]pyrimidin-1(2H)-yl)phenoxy)-N-methylacetamide] | 0.1 to 0.9
7 | CCn1c(=O)c2c(Nc3ccc(I)cc3F)n(C)c(=O)c(C)c2n(-c2cccc(CC(=O)N(C)C)c2)c1=O [Compound 67, 2-(3-(3-ethyl-5-((2-fluoro-4-iodophenyl)amino)-6,8-dimethyl-2,4,7-trioxo-3,4,6,7-tetrahydropyrido[4,3-d]pyrimidin-1(2H)-yl)phenyl)-N,N-dimethylacetamide] | 0.1 to 0.9
8 | Cc1c(=O)n(C)c(Nc2ccc(I)cc2F)c2c(=O)n(CC(=O)O)c(=O)n(-c3cccc(C(=O)NC4CC4)c3)c12 [Compound 74, 2-(1-(3-(cyclopropylcarbamoyl)phenyl)-5-((2-fluoro-4-iodophenyl)amino)-6,8-dimethyl-2,4,7-trioxo-1,2,6,7-tetrahydropyrido[4,3-d]pyrimidin-3(4H)-yl)acetic acid] | > 100
9 | Cc1c(=O)n(C)c(Nc2ccc(I)cc2F)c2c(=O)n(C3CC3)c(=O)n(-c3cccc(CC(=O)NC4COC4)c3)c12 [Compound 31, 2-(3-(3-cyclopropyl-5-((2-fluoro-4-iodophenyl)amino)-6,8-dimethyl-2,4,7-trioxo-3,4,6,7-tetrahydropyrido[4,3-d]pyrimidin-1(2H)-yl)phenyl)-N-(oxetan-3-yl)acetamide] | 0.01
10 | Cc1c(=O)n(C)c(Nc2ccc(I)cc2F)c2c(=O)[nH]c(=O)n(-c3cccc(OC(C)(C)C(N)=O)c3)c12 [Compound 20, 2-(3-(5-((2-fluoro-4-iodophenyl)amino)-6,8-dimethyl-2,4,7-trioxo-3,4,6,7-tetrahydropyrido[4,3-d]pyrimidin-1(2H)-yl)phenoxy)-2-methylpropanamide] | 1 to 3
11 | Cc1c(Nc2ccc(I)cc2F)c2c(=O)n(C3CC3)c(=O)n(-c3cccc(C(F)(F)C(N)=O)c3)c2n(C)c1=O [Compound 30, 2-(3-(3-cyclopropyl-5-((2-fluoro-4-iodophenyl)amino)-6,8-dimethyl-2,4,7-trioxo-3,4,7,8-tetrahydropyrido[2,3-d]pyrimidin-1(2H)-yl)phenyl)-2,2-difluoroacetamide] | 1 to 3
12 | Cc1c(=O)n(C)c(Nc2ccc(I)cc2F)c2c(=O)n(C)c(=O)n(-c3cccc(C(=O)N4CCC4)c3)c12 [Compound 56, 1-(3-(azetidine-1-carbonyl)phenyl)-5-((2-fluoro-4-iodophenyl)amino)-3,6,8-trimethylpyrido[4,3-d]pyrimidine-2,4,7(1H,3H,6H)-trione] | 1 to 3
13 | CCn1c(=O)c2c(Nc3ccc(I)cc3F)n(C)c(=O)c(C)c2n(-c2cccc(C(=O)NC3CC3)c2)c1=O [Compound 62, N-cyclopropyl-3-(3-ethyl-5-((2-fluoro-4-iodophenyl)amino)-6,8-dimethyl-2,4,7-trioxo-3,4,6,7-tetrahydropyrido[4,3-d]pyrimidin-1(2H)-yl)benzamide] | 4 to 100
14 | CNC(=O)CCc1cccc(-n2c(=O)n(C3CC3)c(=O)c3c(Nc4ccc(I)cc4F)n(C)c(=O)c(C)c32)c1 [Compound 36, 3-(3-(3-cyclopropyl-5-((2-fluoro-4-iodophenyl)amino)-6,8-dimethyl-2,4,7-trioxo-3,4,6,7-tetrahydropyrido[4,3-d]pyrimidin-1(2H)-yl)phenyl)-N-methylpropanamide] | 1 to 3
15 | Cc1c(=O)n(C)c(Nc2ccc(I)cc2F)c2c(=O)n(C)c(=O)n(-c3cccc(C(=O)N4CCS(=O)(=O)CC4)c3)c12 [Compound 65, 1-(3-(1,1-dioxidothiomorpholine-4-carbonyl)phenyl)-5-((2-fluoro-4-iodophenyl)amino)-3,6,8-trimethylpyrido[4,3-d]pyrimidine-2,4,7(1H,3H,6H)-trione] | 0.1 to 0.9
16 | Cc1c(=O)n(C)c(Nc2ccc(I)cc2F)c2c(=O)[nH]c(=O)n(-c3cccc(CCC(=O)NC4CC4)c3)c12 [Compound 19, N-cyclopropyl-3-(3-(5-((2-fluoro-4-iodophenyl)amino)-6,8-dimethyl-2,4,7-trioxo-3,4,6,7-tetrahydropyrido[4,3-d]pyrimidin-1(2H)-yl)phenyl)propanamide] | 4 to 100
17 | Cc1c(=O)n(C)c(Nc2ccc(I)cc2F)c2c(=O)n(C3CC3)c(=O)n(-c3cccc(OCC(=O)NC4CC4)c3)c12 [Compound 25, N-cyclopropyl-2-(3-(3-cyclopropyl-5-((2-fluoro-4-iodophenyl)amino)-6,8-dimethyl-2,4,7-trioxo-3,4,6,7-tetrahydropyrido[4,3-d]pyrimidin-1(2H)-yl)phenoxy)acetamide] | 0.1 to 0.9
18 | Cc1c(=O)n(C)c(Nc2ccc(I)cc2F)c2c(=O)n(C3CC3)c(=O)n(-c3cccc(CCC(=O)NC4CC4)c3)c12 [Compound 40, N-cyclopropyl-3-(3-(3-cyclopropyl-5-((2-fluoro-4-iodophenyl)amino)-6,8-dimethyl-2,4,7-trioxo-3,4,6,7-tetrahydropyrido[4,3-d]pyrimidin-1(2H)-yl)phenyl)propanamide] | 4 to 100
19 | Cc1c(=O)n(C)c(Nc2ccc(I)cc2F)c2c(=O)n(C)c(=O)n(-c3cccc([C@@H](O)C(N)=O)c3)c12 [Compound 75, (R)-2-(3-(5-((2-fluoro-4-iodophenyl)amino)-3,6,8-trimethyl-2,4,7-trioxo-3,4,6,7-tetrahydropyrido[4,3-d]pyrimidin-1(2H)-yl)phenyl)-2-hydroxyacetamide] | 1 to 3
20 | Cc1c(=O)n(C)c(Nc2ccc(I)cc2F)c2c(=O)n(C)c(=O)n(-c3cccc(CC(=O)N4CC(O)C4)c3)c12 [Compound 48, 5-((2-fluoro-4-iodophenyl)amino)-1-(3-(2-(3-hydroxyazetidin-1-yl)-2-oxoethyl)phenyl)-3,6,8-trimethylpyrido[4,3-d]pyrimidine-2,4,7(1H,3H,6H)-trione] | 1 to 3
21 | Cc1c(=O)n(C)c(Nc2ccc(I)cc2F)c2c(=O)n(C3CC3)c(=O)n(-c3cccc(C(=O)N4CCC4)c3)c12 [Compound 24, 1-(3-(azetidine-1-carbonyl)phenyl)-3-cyclopropyl-5-((2-fluoro-4-iodophenyl)amino)-6,8-dimethylpyrido[4,3-d]pyrimidine-2,4,7(1H,3H,6H)-trione] | 0.1 to 0.9
22 | Cc1c(=O)n(C)c(Nc2ccc(I)cc2F)c2c(=O)[nH]c(=O)n(-c3cccc(C(=O)N4CCOCC4)c3)c12 [Compound 7, 5-((2-fluoro-4-iodophenyl)amino)-6,8-dimethyl-1-(3-(morpholine-4-carbonyl)phenyl)pyrido[4,3-d]pyrimidine-2,4,7(1H,3H,6H)-trione] | 4 to 100
23 | Cc1c(=O)n(C)c(Nc2ccc(I)cc2F)c2c(=O)n(C)c(=O)n(-c3cccc(C(F)(F)C(N)=O)c3)c12 [Compound 45, 2,2-difluoro-2-(3-(5-((2-fluoro-4-iodophenyl)amino)-3,6,8-trimethyl-2,4,7-trioxo-3,4,6,7-tetrahydropyrido[4,3-d]pyrimidin-1(2H)-yl)phenyl)acetamide] | 1 to 3
24 | Cc1c(=O)n(C)c(Nc2ccc(I)cc2F)c2c(=O)[nH]c(=O)n(-c3cccc(C(=O)N4CCNCC4)c3)c12 [Compound 23, 5-((2-fluoro-4-iodophenyl)amino)-6,8-dimethyl-1-(3-(piperazine-1-carbonyl)phenyl)pyrido[4,3-d]pyrimidine-2,4,7(1H,3H,6H)-trione] | 4 to 100
25 | Cc1c(=O)n(C)c(Nc2ccc(I)cc2F)c2c(=O)n(CCO)c(=O)n(-c3cccc(C(=O)NC4CC4)c3)c12 [Compound 55, N-cyclopropyl-3-(5-((2-fluoro-4-iodophenyl)amino)-3-(2-hydroxyethyl)-6,8-dimethyl-2,4,7-trioxo-3,4,6,7-tetrahydropyrido[4,3-d]pyrimidin-1(2H)-yl)benzamide] | 4 to 100

— patent publication US9428499B2, “Heterocyclyl compounds as MEK inhibitors” (LUPIN LIMITED, priority 2012, dated 2016)
